Key:
Type in all cases: cell-based
[1] = test system: L428, MDR + HL; test: In vitro assays - tubulysin free drugs, CellTiter-Glo growth inhibition; details: Homo sapiens, L-428, 96 h, free drug
Protocol: (§1) In vitro assays. Cells cultured in log-phase growth were seeded for 24 h in 96-well plates containing 150 μL RPMI 1640 supplemented with 20% FBS. Serial dilutions of antibody-drug conjugates in cell culture media were prepared at 4× working concentrations; 50 μL of each dilution was added to the 96-well plates. Following addition of ADC, cells were incubated with test articles for 4 d at 37° C. After 96 h, growth inhibition was assessed by CellTiter-Glo® (Promega, Madison, WI) and luminescence was measured on a plate reader. The IC50 value, determined in triplicate, is defined here as the concentration that results in a 50% reduction in cell growth relative to untreated controls.
(§2) In vitro assays—tubulysin free drugs. Cells were treated for 96 hours with tubulysin ether analogs (40-42) or tubulysin M (7), then assessed for viability as described in the methods.
(§3) The tubulysin ester analogs (133-137) and unsaturated ether analogs (176-179) were tested in vitro for potency relative to tubulysin M (7), following a 96 hour exposure. As shown by IC50 values (nM) of Table 2, Tubulysin esters 133-136 performed comparably to tubulysin M, with similar potencies across of the cell lines.

[2] = test system: Karpas299, ALCL; test: as above; details: Homo sapiens, KARPAS-299, 96 h, free drug
Protocol: as §1, §2, §3

[3] = test system: L540cy, HL; test: as above; details: L540cy, 96 h
Protocol: as §1, §2, §3
(§4) A series of analogues of the ethyl ether tubulysin compound TubOEt (41) were synthesized on solid phase lanterns that maintain the ethyl ether substitution, while either varying the residue at the Ile position (203-215) or the Mep position (216-221). Following cleavage from the solid phase, the analogues were obtained in >85% purity and tested without further purification. The compounds were tested in vitro for potency relative to a sample of TubOEt synthesized in parallel on a lantern (41-lantern), following a 96 hour exposure, with IC5O values expressed in nM (Table 3). While in many cases an attenuation in activity was observed relative to 41-lantern, some well-tolerated substitutions were found. […] While this stereochemical preference is not observed when Ile is replaced with O-methyl threonine (207) or O-methyl allothreonine (206), bulkier substituents led to a greater differentiation. […] Replacement of the Mep residue was generally less-well tolerated.

[4] = test system: HL60, AML; test: as above; details: Homo sapiens, HL-60, 96 h
Protocol: as §1, §2, §3, §4

[5] = test system: HL60/RV, MDR + AML; test: as above; details: Homo sapiens, HL-60, 96 h
Protocol: as §1, §2, §3, §4

[6] = test system: Ramos, NHL; test: In vitro assays - TubOEt analogues, CellTiter-Glo growth inhibition; details: Homo sapiens, Table 3, lantern-made analogues >85% purity, 96 hour exposure
Protocol: as §1, §4

[7] = test system: HepG2, HCC; test: as above; details: Homo sapiens, Table 3, lantern-made analogues >85% purity, 96 hour exposure
Protocol: as §1, §4

[8] = test system: U266 MM; test: as above; details: Homo sapiens, U-266; Table 3; lantern-made analogues >85% purity, 96 hour exposure
Protocol: as §1, §4

[9] = Table 2, free drug, 96 hour exposure
[10] = Table 1 (examples), free drug, 96 hours
[11] = Table 3, lantern-made analogues >85% purity, 96 hour exposure

CC[C@H](C)[C@H](NC(=O)[C@H]1CCCCN1C)C(=O)N(C)[C@H](C[C@@H](OC(C)=O)c1nc(C(=O)N[C@@H](Cc2ccccc2)C[C@H](C)C(=O)O)cs1)C(C)C [Compound 7, tubulysin M, reference compound]
IC50 ([1]; Table 1 (examples), 96 hours): 0.11 nM | IC50 ([1]; Table 2, 96 hour exposure): 0.04 nM | IC50 ([2]; Table 1 (examples), 96 hours): 0.17 nM | IC50 ([2]; Table 2, 96 hour exposure): 0.04 nM | IC50 ([3]; Table 1 (examples), free drug): 0.14 nM | IC50 [3, 9]: 0.08 nM | IC50 [4, 10]: 0.3 nM | IC50 [4, 9]: 0.15 nM | IC50 [5, 10]: 2.2 nM | IC50 [5, 9]: 1 nM

CC[C@H](C)[C@H](NC(=O)[C@H]1CCCCN1C)C(=O)N(C)[C@H](C[C@@H](OC)c1nc(C(=O)N[C@@H](Cc2ccccc2)C[C@H](C)C(=O)O)cs1)C(C)C [Compound 40, (2S,4R)-4-(2-((1R,3R)-3-((2S,3S)—N,3-dimethyl-2-((R)-1-methylpiperidine-2-carboxamido)pentanamido)-1-methoxy-4-methylpentyl)thiazole-4-carboxamido)-2-methyl-5-phenylpentanoic acid]
IC50 ([1]; Table 1 (examples), 96 hours): 0.5 nM | IC50 ([2]; Table 1 (examples), 96 hours): 0.19 nM | IC50 ([3]; Table 1 (examples), free drug): 0.12 nM | IC50 [4, 10]: 0.13 nM | IC50 [5, 10]: 29 nM

CCO[C@H](C[C@H](C(C)C)N(C)C(=O)[C@@H](NC(=O)[C@H]1CCCCN1C)C(CC)CC)c1nc(C(=O)N[C@@H](Cc2ccccc2)C[C@H](C)C(=O)O)cs1 [Compound 203, (2S,4R)-4-(2-((1R,3R)-1-ethoxy-3-((S)-3-ethyl-N-methyl-2-((R)-1-methylpiperidine-2-carboxamido)pentanamido)-4-methylpentyl)thiazole-4-carboxamido)-2-methyl-5-phenylpentanoic acid]
IC50 [6]: 0.4 nM | IC50 [7]: 8 nM | IC50 [8]: 0.5 nM | IC50 [3, 11]: 1 nM | IC50 [4, 11]: 8 nM | IC50 [5, 11]: 604 nM

CCO[C@H](C[C@H](C(C)C)N(C)C(=O)[C@@H](NC(=O)[C@H]1CCCCN1C)[C@H](C)OC)c1nc(C(=O)N[C@@H](Cc2ccccc2)C[C@H](C)C(=O)O)cs1 [Compound 206, (2S,4R)-4-(2-((1R,3R)-1-ethoxy-3-((2S,3S)-3-methoxy-N-methyl-2-((R)-1-methylpiperidine-2-carboxamido)butanamido)-4-methylpentyl)thiazole-4-carboxamido)-2-methyl-5-phenylpentanoic acid]
IC50 [6]: 2 nM | IC50 [7]: 41 nM | IC50 [8]: 3 nM | IC50 [3, 11]: 6 nM | IC50 [4, 11]: 16 nM | IC50 [5, 11]: > 1000 nM

CCO[C@H](C[C@H](C(C)C)N(C)C(=O)[C@@H](NC(=O)[C@H]1CCCCN1C)[C@@H](C)OC)c1nc(C(=O)N[C@@H](Cc2ccccc2)C[C@H](C)C(=O)O)cs1 [Compound 207, (2S,4R)-4-(2-((1R,3R)-1-ethoxy-3-((2S,3R)-3-methoxy-N-methyl-2-((R)-1-methylpiperidine-2-carboxamido)butanamido)-4-methylpentyl)thiazole-4-carboxamido)-2-methyl-5-phenylpentanoic acid]
IC50 [6]: 2 nM | IC50 [7]: 46 nM | IC50 [8]: 2 nM | IC50 [3, 11]: 6 nM | IC50 [4, 11]: 9 nM | IC50 [5, 11]: > 1000 nM

CCO[C@H](C[C@H](C(C)C)N(C)C(=O)[C@@H](NC(=O)[C@H]1CCCCN1C)C1Cc2ccccc2C1)c1nc(C(=O)N[C@@H](Cc2ccccc2)C[C@H](C)C(=O)O)cs1 [Compound 208, (2S,4R)-4-(2-((1R,3R)-3-((S)-2-(2,3-dihydro-1H-inden-2-yl)-N-methyl-2-((R)-1-methylpiperidine-2-carboxamido)acetamido)-1-ethoxy-4-methylpentyl)thiazole-4-carboxamido)-2-methyl-5-phenylpentanoic acid]
IC50 [6]: 44 nM | IC50 [7]: 250 nM | IC50 [8]: 40 nM | IC50 [3, 11]: 58 nM | IC50 [4, 11]: 221 nM | IC50 [5, 11]: > 1000 nM

CCO[C@H](C[C@H](C(C)C)N(C)C(=O)[C@@H](NC(=O)[C@H]1CCCCN1C)[C@H](C)CC)c1nc(C(=O)N[C@@H](Cc2ccccc2)C[C@H](C)C(=O)O)cs1 [Compound 209, (2S,4R)-4-(2-((1R,3R)-3-((2S,3R)—N,3-dimethyl-2-((R)-1-methylpiperidine-2-carboxamido)pentanamido)-1-ethoxy-4-methylpentyl)thiazole-4-carboxamido)-2-methyl-5-phenylpentanoic acid]
IC50 [6]: 7 nM | IC50 [7]: 50 nM | IC50 [8]: 8 nM | IC50 [3, 11]: 12 nM | IC50 [4, 11]: 15 nM | IC50 [5, 11]: > 1000 nM

CCO[C@H](C[C@H](C(C)C)N(C)C(=O)C(NC(=O)[C@H]1CCCCN1C)C12CC(F)(C1)C2)c1nc(C(=O)N[C@@H](Cc2ccccc2)C[C@H](C)C(=O)O)cs1 (stereo partly drawn) [Compound 211, (2S,4R)-4-(2-((1R,3R)-1-ethoxy-3-(2-(3-fluorobicyclo[1.1.1]pentan-1-yl)-N-methyl-2-((R)-1-methylpiperidine-2-carboxamido)acetamido)-4-methylpentyl)thiazole-4-carboxamido)-2-methyl-5-phenylpentanoic acid]
IC50 [6]: 1 nM | IC50 [7]: 14 nM | IC50 [8]: 2 nM | IC50 [3, 11]: 2 nM | IC50 [4, 11]: 5 nM | IC50 [5, 11]: 224 nM

CCO[C@H](C[C@H](C(C)C)N(C)C(=O)[C@H](CC1CC1)NC(=O)[C@H]1CCCCN1C)c1nc(C(=O)N[C@@H](Cc2ccccc2)C[C@H](C)C(=O)O)cs1 [Compound 212, (2S,4R)-4-(2-((1R,3R)-3-((S)-3-cyclopropyl-N-methyl-2-((R)-1-methylpiperidine-2-carboxamido)propanamido)-1-ethoxy-4-methylpentyl)thiazole-4-carboxamido)-2-methyl-5-phenylpentanoic acid]
IC50 [6]: 1 nM | IC50 [7]: 19 nM | IC50 [8]: 1 nM | IC50 [3, 11]: 2 nM | IC50 [4, 11]: 8 nM | IC50 [5, 11]: 810 nM

CCO[C@H](C[C@H](C(C)C)N(C)C(=O)[C@H](CC1CCCCC1)NC(=O)[C@H]1CCCCN1C)c1nc(C(=O)N[C@@H](Cc2ccccc2)C[C@H](C)C(=O)O)cs1 [Compound 213, (2S,4R)-4-(2-((1R,3R)-3-((S)-3-cyclohexyl-N-methyl-2-((R)-1-methylpiperidine-2-carboxamido)propanamido)-1-ethoxy-4-methylpentyl)thiazole-4-carboxamido)-2-methyl-5-phenylpentanoic acid]
IC50 [6]: 10 nM | IC50 [7]: 70 nM | IC50 [8]: 9 nM | IC50 [3, 11]: 20 nM | IC50 [4, 11]: 42 nM | IC50 [5, 11]: > 1000 nM

CCO[C@H](C[C@H](C(C)C)N(C)C(=O)[C@@H](NC(=O)[C@H]1CCCCN1C)[C@H](C)OC(C)(C)C)c1nc(C(=O)N[C@@H](Cc2ccccc2)C[C@H](C)C(=O)O)cs1 [Compound 214, (2S,4R)-4-(2-((1R,3R)-3-((2S,3S)-3-(tert-butoxy)-N-methyl-2-((R)-1-methylpiperidine-2-carboxamido)butanamido)-1-ethoxy-4-methylpentyl)thiazole-4-carboxamido)-2-methyl-5-phenylpentanoic acid]
IC50 [6]: 20 nM | IC50 [7]: 91 nM | IC50 [8]: 22 nM | IC50 [3, 11]: 30 nM | IC50 [4, 11]: 190 nM | IC50 [5, 11]: > 1000 nM

CCO[C@H](C[C@H](C(C)C)N(C)C(=O)[C@@H](NC(=O)[C@@H](C(C)C)N(C)C)[C@@H](C)CC)c1nc(C(=O)N[C@@H](Cc2ccccc2)C[C@H](C)C(=O)O)cs1 [Compound 220, (2S,4R)-4-(2-((3R,6S,9R,11R)-6-((S)-sec-butyl)-3,9-diisopropyl-2,8-dimethyl-4,7-dioxo-12-oxa-2,5,8-triazatetradecan-11-yl)thiazole-4-carboxamido)-2-methyl-5-phenylpentanoic acid]
IC50 [6]: 10 nM | IC50 [7]: 41 nM | IC50 [8]: 10 nM | IC50 [3, 11]: 13 nM | IC50 [4, 11]: 299 nM | IC50 [5, 11]: > 1000 nM

— patent US11793880B2, “Conjugates of quaternized tubulysin compounds” (Seagen Inc., priority 2015, dated 2023)
